Legend:
Type in all cases: cell-based
[1] = tested on: Tier II genes; assay: Tier II genes' expression following cisplatin treatment
[2] = tested on: A549 cells; assay: Cisplatin dose response, A549
Protocol: (§1) Cisplatin screen. Optimal cisplatin working concentrations were established via dose response and cell doubling time. In the dose response, 3,000 A549 and H460 cells were plated in 96-well plates and treated with a range of cisplatin concentrations. After 72 h, CellTiter-Glo 2.0 (Promega, cat. no. G9242) was added to the media (1:1), and luminescence was recorded. For the cell doubling time, 1M cells were plated in 10 cm plates. Different cisplatin concentrations were added at indicated concentrations, and living cells counted every 2-3 days up to 14 days. Cisplatin survival screen: 48M and 96M cells were plated at TO and treated with 6.5 μM and 25 μM of Cisplatin for A549 cells and 2 μM and 10 μM for H460 cells, corresponding to IC30 and IC80, respectively. Cell pellets were collected after 14 and 21 days. The death screen was carried out as follows: 144M cells were seeded and treated with cisplatin at 2 μM and 1 μM (IC20) for A549 and H460, respectively. Every 24 h, for five days, floating (dead) cells were collected and pooled together for gDNA extraction.

[3] = tested on: H460 cells; assay: Cisplatin dose response, H460
Protocol: as §1

**Q.** For `N.N.[Cl][Pt][Cl]` [Cisplatin, cisplatin], which “Tier II genes' expression” value [1] is on record?
**A.** upregulation

**Q.** What about the IC20 [2] of the same compound?
**A.** 2 µM

**Q.** What about the IC30 [2] of the same compound?
**A.** 6.5 µM

**Q.** What about the IC80 [2] of the same compound?
**A.** 25 µM

**Q.** What about the IC20 [3] of the same compound?
**A.** 1 µM

**Q.** What about the IC30 [3] of the same compound?
**A.** 2 µM

**Q.** And the IC80 [3]?
**A.** 10 µM

Source: patent US20250002914A1, “NUCLEIC ACID AGENTS FOR TREATMENT OF NON-SMALL-CELL LUNG CANCER” (UNIVERSITY COLLEGE DUBLIN, priority 2021, published 2025)
